Source: US9850493B2, “Biological methods for preparing a fatty dicarboxylic acid” (VERDEZYNE, INC., priority 2012, dated 2017)

Assay: In vitro acyl-CoA oxidase activity assay of E. coli lysates
Assay type: biochemical, Candida strain ATCC20336
Settings: wild type enzyme, FIG. 21
Text: Acyl-CoA oxidases from a range of organisms were cloned into the E. coli expression vector pET26b (EMD4Biosciences, Darmstadt, Germany), which contains a kanamycin resistance cassette. The source of the acyl-CoA oxidase, the name of the gene, the primers and restriction enzymes used to clone the acyl CoA oxidase coding sequence into pET26b and the coding sequence are described herein. The acyl CoA oxidase coding sequences were amplified by PCR using the appropriate primers designed from cDNA libraries, published cDNA or genomic DNA sequences corresponding to the organism. […]
To express an enzyme, a colony from each transformation of Rosetta cells was used to start a 5 ml overnight culture of LB containing the antibiotics kanamycin (to select for pET26b) and chloramphenicol (to select for a second plasmid found in Rosetta II cells that mediates improved translation of eukaryotic proteins expressed in E. coli) grown at 37° C. The next morning, the overnight culture was used to seed 30 ml of LB containing kanamycin and chloramphenicol to an OD600 reading of 0.1. […]
To test the activity of the acyl CoA oxidase, cells from the overnight induction were pelleted at 1046×g at 4° C. in 50 ml conical tubes. […] The spectrophotometer was set to read for 5 minutes at 500 nm, 30° C. […]

## Pox5: wild type acyl CoA oxidase Pox5 from Candida strain ATCC20336
  activity on C6 and C8 substrates: low activity
  substrate chain length of optimal activity: 12 to 18 carbons
